Reference: patent US11596716B2, “Compounds and matrices for use in bone growth and repair” (Human BioMolecular Research Institute, priority 2013, dated 2023)

System: C2C12 cells
Assay: Alkaline Phosphatase (ALP) functional activity assay in C2C12 cells
Assay type: cell-based, Mouse
Conditions: normalized to DMSO treatment; for activation at 0.5 µM: Mus musculus, C2C12, 144 h
Procedure: Alkaline Phosphatase (ALP) Functional Activity Assay: C2C12 cells were plated into 12-well plates with 7,000 cells/well in 1 mL growth media. […] 1, 2, 3, or 4 in 0.1% DMSO was added (500 nM). Half the media was exchanged with fresh media containing compound every 48 hrs. After 6 days, media was removed, ALP Lysis Buffer (10 mM Tris-HCl pH 8.0, 1 mM MgCl2, and 1% Triton X100) added, and cell lysate obtained (10 min incubation at RT) by centrifugation (5 min at 3500× g at 4° C.). Para-nitrophenol phosphate (pNPP) (2 mg/mL) was incubated with 50 μl cell lysate (10 mins, 37° C.). After addition of […] 0.02 N NaOH, absorbance OD405 was measured. Protein concentration was determined by Bradford protein assay. Results of ALP activity were plotted as nM pNP hydrolyzed/mg total protein. After normalizing control samples (i.e., DMSO-treated samples) to one-fold, the fold-changes were plotted to indicate the relative ALP activity. […] This protocol was applied to hMSC and E15 cells as well.

[1] = compounds of Formula II or IV, absence of matrix
[2] = compounds of Formula II or IV, presence of calcium phosphate matrix
[3] = compounds of Formula VI, absence of matrix
[4] = compounds of Formula VI, presence of calcium phosphate matrix

Which results are given for `COc1ccc(C(=O)N2c3ccc(F)cc3[C@@H](N(C(=O)c3ccc(OC)cc3)c3ccc(F)cc3)C[C@@H]2C)cc1` (relative stereo) [Compound 30, trans-1-(p-methoxybenzoyl)-2-methyl-6-fluoro-N-(p-fluorophenyl)-N-(p-methoxybenzoyl)-1,2,3,4-tetrahydroquinolin-4-amine]?
activation at 0.5 µM [1]: < 5%; activation at 0.5 µM [2]: 5 to 50%

Which results are given for “cis-1-acetyl-4-(phenylamino)-1,2,3,4-tetrahydroquinoline [Compound 20]”?
ALP activity −matrix [1]: − (<5%); ALP activity +matrix [2]: ++ (50-100%)

`C[C@H]1C[C@H](N(C(=O)c2ccccc2)c2ccc(F)cc2)c2cc(F)ccc2N1C(=O)c1ccccc1` (relative stereo) [Compound 29, trans-1-benzoyl-2-methyl-6-fluoro-N-(p-fluorophenyl)-N-benzoyl-1,2,3,4-tetrahydroquinolin-4-amine] was tested. Which activation at 0.5 µM [1] did it give?
Its activation at 0.5 µM is greater than 100%.

And the activation at 0.5 µM [2]?
The activation at 0.5 µM was less than 5%.

`Cc1ccc(N[C@H]2C[C@H](C)N(C(=O)c3ccccc3)c3ccc(C)cc32)cc1` (relative stereo) [Compound 19, trans-1-benzoyl-2,6-dimethyl-N-(p-methylphenyl)-1,2,3,4-tetrahydroquinolin-4-amine] was tested. Which activation at 0.5 µM [1] did it give?
Its activation at 0.5 µM is less than 5%.

What about the activation at 0.5 µM [2] of the same compound?
The activation at 0.5 µM was less than 5%.

How did the activation at 0.5 µM [1] turn out when `COc1ccc(C(=O)N2c3ccc(F)cc3[C@@H](Nc3ccc(F)cc3)C[C@@H]2C)cc1` (relative stereo) [Compound 26, trans-1-(p-methoxybenzoyl)-2-methyl-6-fluoro-N-(p-fluorophenyl)-1,2,3,4-tetrahydroquinolin-4-amine] was run?
Its activation at 0.5 µM is less than 5%.

And the activation at 0.5 µM [2]?
Its activation at 0.5 µM is 50 to 100%.

How did the activation at 0.5 µM [1] turn out when `C[C@H]1C[C@@H](Nc2ccccc2)c2ccccc2N1` (relative stereo) [Compound 7, cis-2-methyl-N-phenyl-1,2,3,4-tetrahydroquinolin-4-amine] was run?
The activation at 0.5 µM was 5 to 50%.

And the activation at 0.5 µM [2]?
Its activation at 0.5 µM is 5 to 50%.

With `Cc1ccc(N[C@H]2C[C@H](C)Nc3ccc(C)cc32)cc1` (relative stereo) [Compound 6, trans-2,6-dimethyl-N-(p-methylphenyl)-1,2,3,4-tetrahydroquinolin-4-amine] as the compound, how does the activation at 0.5 µM [1] read?
Its activation at 0.5 µM is 50 to 100%.

And the activation at 0.5 µM [2]?
The activation at 0.5 µM was less than 5%.

Which results are given for `COc1ccc(F)cc1C=CC(=O)C=C(O)C=Cc1cc(F)ccc1OC` [Compound 53, 1,7-Bis-(5-fluoro-2-methoxyphenyl)-5-Hydroxy-hepta-1,4,6-trien-3-one]?
activation at 0.5 µM [3]: < 5%; activation at 0.5 µM [4]: < 5%

Which activation at 0.5 µM [3] does the source give for `O=C(CCc1ccc(O)cc1)C1CCCC(Cc2ccc(O)cc2)C1=O` (stereo not shown) [Compound 62, 2-(4-Hydroxybenzyl)-6-(3-(4-hydroxyphenyl)propanoyl)cyclohexanone] here?
Its activation at 0.5 µM is less than 5%.

What about the activation at 0.5 µM [4] of the same compound?
The activation at 0.5 µM was 5 to 50%.

`O=C(C=C(O)CCc1ccc(O)cc1)CCc1ccc(O)cc1` [Compound 63, 5-Hydroxy-1,7-bis(4-hydroxyphenyl)hept-4-en-3-one] was tested. Which activation at 0.5 µM [3] did it give?
The activation at 0.5 µM was 5 to 50%.

And the activation at 0.5 µM [4]?
The activation at 0.5 µM was 50 to 100%.

Which results are given for `CN(C)c1ccc(C=CC(=O)C2CCCC(=Cc3ccc(N(C)C)cc3)C2=O)cc1` (stereo not shown) [Compound 57, 2-(4-N,N-dimethylaminobenzylidene)-6-(3-(4-N,N-dimethylaminophenyl)acryloyl)cyclohexanone]?
ALP activity −matrix [3]: − (<5%); ALP activity +matrix [4]: ++ (50-100%)

Which results are given for `O=C(C=CC1CCCCC1)C1CCCC(=CC2CCCCC2)C1=O` (stereo not shown) [Compound 64, 2-(3-Cyclohexylacryloyl)-6-(cyclohexylmethylene)cyclohexanone]?
activation at 0.5 µM [3]: 5 to 50%; activation at 0.5 µM [4]: 5 to 50%

Which activation at 0.5 µM [1] does the source give for `C[C@H]1C[C@@H](Nc2ccc(F)cc2)c2cc(F)ccc2N1C(=O)c1ccccc1` (relative stereo) [Compound 23, cis-1-benzoyl-2-methyl-6-fluoro-N-(p-fluorophenyl)-1,2,3,4-tetrahydroquinolin-4-amine] here?
Its activation at 0.5 µM is 50 to 100%.

What about the activation at 0.5 µM [2] of the same compound?
Its activation at 0.5 µM is 5 to 50%.

How did the activation at 0.5 µM [1] turn out when `Cc1ccc(N[C@H]2C[C@H](C)N(C(=O)C(C)C)c3ccc(C)cc32)cc1` (relative stereo) [Compound 15, trans-1-(2-propylcarbonyl)-2,6-dimethyl-4-(4-methylphenylamino)-1,2,3,4-tetrahydroquinoline] was run?
Its activation at 0.5 µM is less than 5%.

And the activation at 0.5 µM [2]?
Its activation at 0.5 µM is 50 to 100%.

How did the activation at 0.5 µM [3] turn out when `COc1cc(C=CC(=O)C2CCCC(=Cc3ccc(O)c(OC)c3)C2=O)ccc1O` (stereo not shown) [Compound 58, 2-(4-Hydroxy-3-methoxybenzylidene)-6-(3-(4-hydroxy-3-methoxyphenyl)acryloyl)cyclohexanone] was run?
The activation at 0.5 µM was 5 to 50%.

And the activation at 0.5 µM [4]?
The activation at 0.5 µM was 5 to 50%.

Which results are given for `C[C@H]1C[C@H](Nc2ccccc2)c2ccccc2N1` (relative stereo) [Compound 8, trans-2-methyl-N-phenyl-1,2,3,4-tetrahydroquinolin-4-amine]?
activation at 0.5 µM [1]: 5 to 50%; activation at 0.5 µM [2]: 5 to 50%

Which “ALP activity −matrix” value [3] does the source give for `CC(C)[C@H](NC(=O)OC(C)(C)C)C(=O)Oc1ccc(C=CC(O)=CC(=O)C=Cc2ccc(O)cc2)cc1` [Compound 83, (S)-4-(3-hydroxy-7-(4-hydroxyphenyl)-5-oxohepta-1,3,6-trienyl)phenyl 2-N-Boc-amino-3-methylbutanoate] here?
The value was “+ (5-50%)”.

And the “ALP activity +matrix” value [4]?
The value was “− (<5%)”.

How did the activation at 0.5 µM [1] turn out when `CC(=O)N1c2ccc(F)cc2[C@H](Nc2ccc(F)cc2)C[C@@H]1C` (relative stereo) [Compound 21, cis-1-acetyl-2-methyl-6-fluoro-N-(p-fluorophenyl)-1,2,3,4-tetrahydroquinolin-4-amine] was run?
Its activation at 0.5 µM is 5 to 50%.

What about the activation at 0.5 µM [2] of the same compound?
Its activation at 0.5 µM is 5 to 50%.

Which results are given for `O=C(C=Cc1ccc(O)cc1)C1CCCC(=Cc2ccc(O)cc2)C1=O` (stereo not shown) [Compound 55, 2-(4-Hydroxybenzylidene)-6-(3-(4-hydroxyphenyl)acryloyl)-cyclohexanone]?
activation at 0.5 µM [3]: 5 to 50%; activation at 0.5 µM [4]: 5 to 50%

`Cc1ccc(N(C(=O)c2ccccc2)[C@H]2C[C@H](C)N(C(=O)c3ccccc3)c3ccc(C)cc32)cc1` (relative stereo) [Compound 28, trans-1-benzoyl-2,6-dimethyl-N-(p-methylphenyl)-N-benzoyl-1,2,3,4-tetrahydroquinolin-4-amine] was tested. Which activation at 0.5 µM [1] did it give?
Its activation at 0.5 µM is less than 5%.

What about the activation at 0.5 µM [2] of the same compound?
The activation at 0.5 µM was less than 5%.

`Cc1ccc(N[C@@H]2C[C@H](C)Nc3ccc(C)cc32)cc1` (relative stereo) [Compound 5, cis-2,6-dimethyl-N-(p-methylphenyl)-1,2,3,4-tetrahydroquinolin-4-amine] was tested. Which activation at 0.5 µM [1] did it give?
The activation at 0.5 µM was 5 to 50%.

What about the activation at 0.5 µM [2] of the same compound?
The activation at 0.5 µM was 5 to 50%.

With `COc1cc(C=CC(=O)C2CCCC(=Cc3ccc(OC(=O)C(N)CCCCN)c(OC)c3)C2=O)ccc1OC(=O)C(N)CCCCN` (stereo not shown) [Compound 80, 4-(3-(3-(4-(2,6-diaminohexanoyloxy)-3-methoxybenzylidene)-2-oxocyclohexyl)-3-oxoprop-1-enyl)-2-methoxyphenyl bis(2,6-diaminohexanoate)] as the compound, how does the “ALP activity −matrix” value [3] read?
The value was “− (<5%)”.

And the “ALP activity +matrix” value [4]?
The value was “+ (5-50%)”.

`COc1cc(C=CC(=O)C=C(O)C=Cc2ccc(OC(=O)[C@@H](N)C(C)C)c(OC)c2)ccc1OC(=O)[C@@H](N)C(C)C` [Compound 71, (2S,2′S)—O,O′-(3-hydroxy-5-oxohepta-1,3,6-triene-1,7-diyl)bis(2-methoxy-4,1-phenylene) bis(2-amino-3-methylbutanoate)] was tested. Which “ALP activity −matrix” value [3] did it give?
Its value is “+ (5-50%)”.

And the “ALP activity +matrix” value [4]?
Its value is “+ (5-50%)”.

Which “ALP activity −matrix” value [3] does the source give for “(2S,2′S)4-(3-(3-(4-(2-amino-3-methylbutanoyloxy)-3-methoxybenzylidene)-2-oxocyclohexyl)-3-oxoprop-1-enyl)-2-methoxyphenyl bis(2-(tert-butoxycarbonylamino)-3-methylbutanoate) [Compound 78]” here?
Its value is “− (<5%)”.

What about the “ALP activity +matrix” value [4] of the same compound?
Its value is “+ (5-50%)”.

Which results are given for `COc1ccc(C(=O)N2c3ccc(F)cc3[C@H](Nc3ccc(F)cc3)C[C@@H]2C)cc1` (relative stereo) [Compound 25, cis-1-(p-methoxybenzoyl)-2-methyl-6-fluoro-N-(p-fluorophenyl)-1,2,3,4-tetrahydroquinolin-4-amine]?
activation at 0.5 µM [1]: 5 to 50%; activation at 0.5 µM [2]: 5 to 50%

What does the source list for `COc1ccc(F)cc1C=CC(O)=C1CCCC(=Cc2cc(F)ccc2OC)C1=O` [Compound 56, 2-(5-Fluoro-2-methoxybenzylidene)-6-(3-(5-fluoro-2-methoxyphenyl)-1-hydroxyallylidene) cyclohexanone]?
activation at 0.5 µM [3]: < 5%; activation at 0.5 µM [4]: > 100%

How did the “ALP activity −matrix” value [3] turn out when `COc1cc(N(C)C)ccc1C=CC(=O)C1CCCC(=Cc2ccc(N(C)C)cc2OC)C1=O` (stereo not shown) [Compound 59, 2-(4-N,N-dimethylamino-2-methoxybenzylidene)-6-(3-(4-N,N-dimethylamino-2-methoxyphenyl)acryloyl)cyclohexanone] was run?
The value was “− (<5%)”.

And the “ALP activity +matrix” value [4]?
The value was “++ (50-100%)”.

With `COc1ccc(N[C@H]2C[C@H](C)Nc3ccc(OC)cc32)cc1` (relative stereo) [Compound 12, trans-2-methyl-6-methoxy-N-(p-methoxyphenyl)-1,2,3,4-tetrahydroquinolin-4-amine] as the compound, how does the activation at 0.5 µM [1] read?
The activation at 0.5 µM was greater than 100%.

And the activation at 0.5 µM [2]?
The activation at 0.5 µM was 5 to 50%.

Which results are given for `CC(=O)N1c2ccc(C)cc2[C@@H](Nc2ccc(C)cc2)C[C@@H]1C` (relative stereo) [Compound 13, trans-1-acetyl-2,6-dimethyl-N-(p-methylphenyl)-1,2,3,4-tetrahydroquinolin-4-amine]?
activation at 0.5 µM [1]: > 100%; activation at 0.5 µM [2]: < 5%
